Measured values taken from patent US5424290A, “Biologically active peptides and uses therefor” (Magainin Pharmaceuticals Inc., priority 1992, dated 1995).
Residues, ends and D or L forms follow the SMILES beside them.

How the values were obtained:
Assay type in all cases: cell-based
[1] = tested on: S. aureus strain ATCC 25923; assay: Minimal Inhibitory Concentration, microtiter broth dilution antibacterial assay; settings: S. aureus ATCC 25923; Mueller Hinton broth; 16-20 hours at 37° C.; lowest concentration giving a clear well
Text: (§1) Table I, which follows, indicates the Minimal Inhibitory Concentration (MIC) in μg/ml of Peptides (SEQ ID NO:1) through (SEQ ID NO:4), (SEQ ID NO:6) through (SEQ ID NO:13), (SEQ ID NO:16), (SEQ ID NO:20), (SEQ ID NO:21) and (SEQ ID NO:23) against S. aureus strain ATCC 25923, P. aeruginosa strain ATCC 27853, E. coli strain 25922, and Candida albicans. The procedure for the antibacterial assay is based upon the guidelines of the National Committee for Clinical Laboratory Standards, Document M7-T2, Volume 8, No. 8, 1988. Stock solutions of the peptides hereinabove mentioned are prepared at a concentration of 512 μg/ml in sterile deionized distilled water and stored at […]. Each peptide is a C-terminal amide and may or may not be acetylated at the N-terminus. An acetyl group at the N-terminus is indicated by an X. The stock peptide solution is diluted in serial dilutions (1:2) down the wells of a microtiter plate so that the final concentrations of peptides in the wells are 0.25, 0.50, 1, 2, 4, 8, 16, 32, 64, 128, and 256 μg/ml. 1-5×10^5 CFUs/ml of either S. aureus ATCC 25923, E. coli ATCC 25922, P. aeruginosa ATCC 27853, or Candida albicans were added to the wells in full strength Mueller Hinton broth (BBL 11443) from a mid-log culture. The inoculum is standardized spectrophotometrically at 600 nm and is verified by colony counts. The plates are incubated for 16-20 hours at 37° C., and the minimal inhibitory concentration (MIC) for each peptide is determined. Minimal inhibitory concentration is defined as the lowest concentration of peptide which produces a clear well in the microtiter plate.

[2] = tested on: P. aeruginosa strain ATCC 27853; assay: as above; settings: P. aeruginosa ATCC 27853; Mueller Hinton broth; 16-20 hours at 37° C.; lowest concentration giving a clear well
Text: as §1

Candida albicans = assay: Minimal Inhibitory Concentration, microtiter broth dilution assay; settings: Mueller Hinton broth, 16-20 hours at 37° C., lowest concentration giving a clear well
Text: as §1

SMILES	Minimal Inhibitory Concentration S. aureus [1]	Minimal Inhibitory Concentration P. aeruginosa [2]	Minimal Inhibitory Concentration C. albicans (Candida albicans)
CC[C@H](C)[C@H](NC(=O)CN)C(=O)NCC(=O)N[C@@H](CCCCN)C(=O)N[C@@H](Cc1ccccc1)C(=O)N[C@@H](CC(C)C)C(=O)N[C@@H](CCCCN)C(=O)N[C@@H](CCCCN)C(=O)N[C@@H](C)C(=O)N[C@@H](CCCCN)C(=O)N[C@@H](CCCCN)C(=O)N[C@@H](Cc1ccccc1)C(=O)NCC(=O)N[C@@H](CCCCN)C(=O)N[C@@H](C)C(=O)N[C@@H](Cc1ccccc1)C(=O)N[C@H](C(=O)N[C@@H](CCCCN)C(=O)N[C@H](C(=O)N[C@@H](CC(C)C)C(=O)N[C@@H](CCCCN)C(=O)N[C@@H](CCCCN)C(N)=O)[C@@H](C)CC)[C@@H](C)CC [(SEQ ID NO: 19)-NH2] (H-GIGKFLKKAKKFGKAFIKILKK-NH2)	8 µg/mL	8 µg/mL	–
CC[C@H](C)[C@H](NC(=O)CNC(=O)[C@@H](N)CCSC)C(=O)NCC(=O)N[C@@H](CCCCN)C(=O)N[C@@H](Cc1ccccc1)C(=O)N[C@@H](CC(C)C)C(=O)N[C@@H](CCCCN)C(=O)N[C@@H](CCCCN)C(=O)N[C@@H](C)C(=O)N[C@@H](CCCCN)C(=O)N[C@@H](CCCCN)C(=O)N[C@@H](Cc1ccccc1)C(=O)NCC(=O)N[C@@H](CCCCN)C(=O)N[C@@H](C)C(=O)N[C@@H](Cc1ccccc1)C(=O)N[C@H](C(=O)N[C@@H](CCCCN)C(=O)N[C@H](C(=O)N[C@@H](CC(C)C)C(=O)N[C@@H](CCCCN)C(=O)N[C@@H](CCCCN)C(N)=O)[C@@H](C)CC)C(C)C [(SEQ ID NO: 11)-NH2] (H-MGIGKFLKKAKKFGKAFVKILKK-NH2)	64 µg/mL	–	64 µg/mL
CC[C@H](C)[C@H](NC(=O)CNC(=O)[C@H](CCCNC(=N)N)NC(=O)[C@@H](N)CCCNC(=N)N)C(=O)NCC(=O)N[C@@H](CCCCN)C(=O)N[C@@H](Cc1ccccc1)C(=O)N[C@@H](CC(C)C)C(=O)N[C@@H](CCCCN)C(=O)N[C@@H](CCCCN)C(=O)N[C@@H](C)C(=O)N[C@@H](CCCCN)C(=O)N[C@@H](CCCCN)C(=O)N[C@@H](Cc1ccccc1)C(=O)NCC(=O)N[C@@H](CCCCN)C(=O)N[C@@H](C)C(=O)N[C@@H](Cc1ccccc1)C(=O)N[C@H](C(=O)N[C@@H](CCCCN)C(=O)N[C@H](C(=O)N[C@@H](CC(C)C)C(=O)N[C@@H](CCCCN)C(=O)N[C@@H](CCCCN)C(N)=O)[C@@H](C)CC)C(C)C [(SEQ ID NO: 12)-NH2] (H-RRGIGKFLKKAKKFGKAFVKILKK-NH2)	–	32 µg/mL	128 µg/mL
CC[C@H](C)[C@H](NC(=O)CN)C(=O)NCC(=O)N[C@@H](CCCCN)C(=O)N[C@@H](Cc1ccccc1)C(=O)N[C@@H](CC(C)C)C(=O)N[C@@H](CCCCN)C(=O)N[C@@H](CCCCN)C(=O)N[C@@H](C)C(=O)N[C@@H](CCCCN)C(=O)N[C@@H](CCCCN)C(=O)N[C@@H](Cc1ccccc1)C(=O)NCC(=O)N[C@@H](CCCCN)C(=O)N[C@@H](C)C(=O)N[C@@H](Cc1ccccc1)C(=O)N[C@H](C(=O)N[C@@H](CCCCN)C(=O)N[C@H](C(=O)N[C@@H](CC(C)C)C(=O)N[C@@H](CCCCN)C(=O)N[C@@H](CCCCN)C(=O)N[C@@H](CC(N)=O)C(N)=O)[C@@H](C)CC)C(C)C [(SEQ ID NO: 9)-NH2] (H-GIGKFLKKAKKFGKAFVKILKKN-NH2)	64 µg/mL	8 µg/mL	–
CC[C@H](C)[C@H](N)C(=O)NCC(=O)N[C@@H](CCCCN)C(=O)N[C@@H](Cc1ccccc1)C(=O)N[C@@H](CC(C)C)C(=O)N[C@@H](CCCCN)C(=O)N[C@@H](CCCCN)C(=O)N[C@@H](C)C(=O)N[C@@H](CCCCN)C(=O)N[C@@H](CCCCN)C(=O)N[C@@H](Cc1ccccc1)C(=O)NCC(=O)N[C@@H](CCCCN)C(=O)N[C@@H](CCCCN)C(=O)N[C@@H](Cc1ccccc1)C(=O)N[C@@H](CCCCN)C(=O)N[C@@H](CCCCN)C(=O)N[C@@H](CCC(=O)O)C(=O)N[C@H](C(=O)N[C@@H](CCCCN)C(=O)N[C@@H](CCCCN)C(N)=O)[C@@H](C)CC [(SEQ ID NO: 3)-NH2] (H-IGKFLKKAKKFGKKFKKEIKK-NH2)	32 µg/mL	16 µg/mL	–
